The target of data set [1] is T1, Androgen receptor (Homo sapiens) (UniProt P10275).
T1 sequence (whole entry): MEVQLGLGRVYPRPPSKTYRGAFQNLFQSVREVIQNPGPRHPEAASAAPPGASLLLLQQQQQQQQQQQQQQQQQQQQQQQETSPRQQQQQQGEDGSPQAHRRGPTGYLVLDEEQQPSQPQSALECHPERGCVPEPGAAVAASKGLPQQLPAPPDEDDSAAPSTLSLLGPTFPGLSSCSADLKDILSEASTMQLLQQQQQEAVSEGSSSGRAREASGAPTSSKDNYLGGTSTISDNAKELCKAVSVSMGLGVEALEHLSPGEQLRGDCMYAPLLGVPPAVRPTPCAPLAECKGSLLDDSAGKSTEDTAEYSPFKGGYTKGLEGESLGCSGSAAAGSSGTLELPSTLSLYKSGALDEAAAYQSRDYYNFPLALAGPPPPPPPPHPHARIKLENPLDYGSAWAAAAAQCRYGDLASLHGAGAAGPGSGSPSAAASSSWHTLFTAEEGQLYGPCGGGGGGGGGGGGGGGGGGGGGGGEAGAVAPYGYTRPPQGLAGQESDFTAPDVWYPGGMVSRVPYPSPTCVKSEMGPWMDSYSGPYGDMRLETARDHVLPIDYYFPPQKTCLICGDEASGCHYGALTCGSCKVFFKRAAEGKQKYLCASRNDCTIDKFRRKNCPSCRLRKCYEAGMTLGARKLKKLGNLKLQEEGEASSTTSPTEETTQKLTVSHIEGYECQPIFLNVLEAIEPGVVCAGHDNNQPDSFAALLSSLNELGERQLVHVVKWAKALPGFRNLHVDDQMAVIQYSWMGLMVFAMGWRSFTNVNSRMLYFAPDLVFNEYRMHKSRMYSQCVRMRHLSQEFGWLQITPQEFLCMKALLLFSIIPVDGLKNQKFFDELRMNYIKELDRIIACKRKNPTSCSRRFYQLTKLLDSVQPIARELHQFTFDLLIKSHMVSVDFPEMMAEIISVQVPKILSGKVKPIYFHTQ
Put plainly: Antagonist activity at human androgen receptor expressed in LNAR cells assessed as inhibition of […]-induced luciferase activity by reporter gene assay. It counts as functional, cell-based.

Data set [2] in a line: Drug metabolism in human liver microsomes assessed as CYP450-mediated oxidation. In kind it is ADME, Microsome.
The nature of data set [3]: Kinetic solubility in water. It counts as physicochemical. The settings on record: read-out: Kinetic_solubility.
The nature of data set [4]: Oral bioavailability in rat. In kind it is ADME, organism-based. Conditions: in vivo.
A short description of data set [5]: Plasma clearance in rat. It counts as ADME, organism-based.
The nature of data set [6]: Half life in rat. In kind it is ADME, organism-based. Conditions: in vivo.

The source made the active and inactive calls. The rule behind the calls is not given here. Where only a bound is given, the exact number is not on record here.

Consider `CC1(C)[C@H](NC(=O)c2cnc3ncccn23)C(C)(C)[C@H]1Oc1ccc(C#N)c(Cl)c1`, for which the inhibition result in data set [1] is “Active”.

Turning to `Cc1nc(O[C@H]2C(C)(C)[C@H](NC(=O)c3cnc4ccccn34)C2(C)C)ccc1C#N`, the Drug metabolism result in data set [2] is “Active”. Besides, the solubility kinetic in data set [3] was under 0.4 µM.

As to `Cc1nc(O[C@H]2C(C)(C)[C@H](NC(=O)c3cnc4ncccn34)C2(C)C)ccc1C#N`, in data set [4], the bioavailability amounted to 31%. In addition, the clearance in data set [5] is 11.6 mL/min/kg. The half-life in data set [6] was 3.6 h.

Regarding `COc1nc(O[C@H]2C(C)(C)[C@H](NC(=O)c3cnc4ncccn34)C2(C)C)ccc1C#N`, the inhibition entry in data set [1] was “Active”.

`CC1(C)[C@H](NC(=O)c2cnc3ncccn23)C(C)(C)[C@H]1Oc1ccc(C#N)c(C#N)c1`: the inhibition entry in data set [1] was “Active”.
